From ChEMBL document CHEMBL1131899, “First fatty acylated dipeptides to affect muscarinic receptor ligand binding” (Bioorg Med Chem Lett, 1999)
Where a SMILES comes first, the peptide text is derived from it. The star is where a group is joined. Palmitoyl = CCCCCCCCCCCCCCCC(=O)*; Myristoyl = CCCCCCCCCCCCCC(=O)*; OBn = c1ccc(CO*)cc1

Key:
[1] = biological target: T1, Muscarinic acetylcholine receptor M2 (Homo sapiens, UniProt P08172); assay: (§1) Binding of [3H]QNB to HM2 receptor was evaluated by saturation binding assay
T1 sequence (P08172 whole entry): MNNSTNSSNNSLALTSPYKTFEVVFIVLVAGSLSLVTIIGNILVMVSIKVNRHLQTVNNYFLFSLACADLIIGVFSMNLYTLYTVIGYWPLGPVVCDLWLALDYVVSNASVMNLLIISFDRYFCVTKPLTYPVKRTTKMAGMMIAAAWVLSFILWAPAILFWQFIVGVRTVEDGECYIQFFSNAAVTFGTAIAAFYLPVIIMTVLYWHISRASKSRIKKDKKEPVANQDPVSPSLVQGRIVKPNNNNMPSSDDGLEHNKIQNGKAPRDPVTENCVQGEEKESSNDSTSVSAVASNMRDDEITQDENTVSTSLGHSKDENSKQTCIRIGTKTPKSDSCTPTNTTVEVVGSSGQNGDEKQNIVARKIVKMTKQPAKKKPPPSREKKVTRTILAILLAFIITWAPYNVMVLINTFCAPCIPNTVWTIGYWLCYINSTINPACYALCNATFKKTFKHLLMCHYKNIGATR

[2] = biological target: T2, Muscarinic acetylcholine receptor M2 (Homo sapiens) (UniProt P08172); assay: as §1
T2 sequence (whole entry): T1 sequence (P08172 whole entry)

[3] = biological target: T3, Muscarinic acetylcholine receptor M1 (Homo sapiens, UniProt P11229); assay: (§2) Binding of [3H]QNB to HM1 receptor was evaluated by saturation binding assay
T3 sequence (P11229 whole entry): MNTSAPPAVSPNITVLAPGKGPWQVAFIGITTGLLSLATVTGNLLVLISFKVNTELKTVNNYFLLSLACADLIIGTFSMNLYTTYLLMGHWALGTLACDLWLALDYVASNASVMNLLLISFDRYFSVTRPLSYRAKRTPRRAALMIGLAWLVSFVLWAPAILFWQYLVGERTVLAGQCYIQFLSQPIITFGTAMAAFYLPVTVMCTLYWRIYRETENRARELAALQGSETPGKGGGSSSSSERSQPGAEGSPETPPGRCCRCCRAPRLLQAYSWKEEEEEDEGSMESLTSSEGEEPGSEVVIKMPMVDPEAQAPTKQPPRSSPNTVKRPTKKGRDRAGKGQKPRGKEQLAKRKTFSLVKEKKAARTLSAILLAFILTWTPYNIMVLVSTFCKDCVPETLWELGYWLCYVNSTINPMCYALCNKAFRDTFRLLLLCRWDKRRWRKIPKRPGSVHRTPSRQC

[4] = biological target: T4, Muscarinic acetylcholine receptor M1 (Homo sapiens) (UniProt P11229); assay: as §2
T4 sequence (whole entry): T3 sequence (P11229 whole entry)

Row | Kd [1] | Bmax [2] | Kd [3] | Bmax [4] | Compound
1 | 0.15 nM | 0.8 pmol/mg | 0.04 nM | 1.7 pmol/mg | CCCCCCCCCCCCCC(=O)NCC(=O)N[C@@H](CO)C(=O)OCc1ccccc1 (Myristoyl-Gly-Ser-OBn)
2 | 1.78 nM | 1.8 pmol/mg | 0.03 nM | 1.2 pmol/mg | CCCCCCCCCCCCCCCC(=O)OC[C@H](NC(=O)CNC(=O)CCCCCCCCCCCCC)C(=O)OCc1ccccc1 (Myristoyl-Gly-Ser(Palmitoyl)-OBn)
